# Results: the supplement of paper PMC5752671
# Counter-ions that a name gives are not always drawn.
# Assays:
# EOL-1 = test: area under dose-response curve (cell viability) (AUC (arbitrary, % viability x log concentration)); higher = less sensitive (more viable); conditions: 4 days
# How it was run: (§1)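 The value given is the area under a fitted sigmoid dose-response curve. That sigmoid had four parameters and was fitted to duplicate-averaged data from fourteen leukemia cell lines grown on extracellular-matrix-coated 384-well plates. One day after plating, drugs were robotically dosed in duplicate at eight concentrations spanning 4–5 logs between 10^–12 and 10^–4 M, chosen per drug, and viability was read with CellTiter-Glo 4 days later.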
# HL60 = test: as above; conditions: 4 days
# How it was run: as §1
# KASUMI1 = test: as above; conditions: 4 days
# How it was run: as §1
# KG1 = test: as above; conditions: 4 days
# How it was run: as §1
# MOLM/13 = test: as above; conditions: 4 days
# How it was run: as §1
# MOLM/16 = test: as above; conditions: 4 days
# How it was run: as §1
# MV4.11 = test: as above; conditions: 4 days
# How it was run: as §1
# NB4 = test: as above; conditions: 4 days
# How it was run: as §1
# OCI-AML2 = test: as above; conditions: 4 days
# How it was run: as §1
# OCI-AML3 = test: as above; conditions: 4 days
# How it was run: as §1
# PL-21 = test: as above; conditions: 4 days
# How it was run: as §1
# SKM1 = test: as above; conditions: 4 days
# How it was run: as §1
# THP-1 = test: as above; conditions: 4 days
# How it was run: as §1
# U937 = test: as above; conditions: 4 days
# How it was run: as §1
# AML.030 = primary AML patient cells; test: area under dose-response curve (cell viability), primary AML patient cells (AUC (arbitrary, % viability x log concentration; ComBat batch-corrected)); higher = less sensitive (more viable); conditions: 4 days; sample type: primary AML patient cells
# How it was run: (§2)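 Drug response was scored as area under the fitted curve, with ComBat used to remove batch effects. The curves were four-parameter fits to CellTiter-Glo viability readings taken 4 days after drugs were added, in duplicate, at eight concentrations within 10^–12–10^–4 M. The cells were blast-enriched primary AML samples, thawed with DNase, precultured 48 h in IMDM with horse serum, fetal calf serum and low stem cell factor, and seeded at 5000 cells/well on extracellular-matrix-coated 384-well plates.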
# AML.083 = primary AML patient cells; test: as above; conditions: 4 days; sample type: primary AML patient cells
# How it was run: as §2
# AML012 = primary AML patient cells; test: as above; conditions: 4 days; sample type: primary AML patient cells
# How it was run: as §2
# AML062 = primary AML patient cells; test: as above; conditions: 4 days; sample type: primary AML patient cells
# How it was run: as §2
# AML098 = primary AML patient cells; test: as above; conditions: 4 days; sample type: primary AML patient cells
# How it was run: as §2
# AML099 = primary AML patient cells; test: as above; conditions: 4 days; sample type: primary AML patient cells
# How it was run: as §2
Structure (SMILES),area under dose-response curve (EOL-1),area under dose-response curve (HL60),area under dose-response curve (KASUMI1),area under dose-response curve (KG1),area under dose-response curve (MOLM/13),area under dose-response curve (MOLM/16),area under dose-response curve (MV4.11),area under dose-response curve (NB4),area under dose-response curve (OCI-AML2),area under dose-response curve (OCI-AML3),area under dose-response curve (PL-21),area under dose-response curve (SKM1),area under dose-response curve (THP-1),area under dose-response curve (U937),area under dose-response curve (AML.030),area under dose-response curve (AML.083),area under dose-response curve (AML012),area under dose-response curve (AML062),area under dose-response curve (AML098),area under dose-response curve (AML099)
CC[C@H](Nc1ncnc2[nH]cnc12)c1nc2cccc(F)c2c(=O)n1-c1ccccc1 [CAL-101],558,644,552,653,662,615,577,581,573,616,624,603,632,597,704,626,670,594,586,678
O=C(O)C1(C(=O)O)CCC1.[NH2-].[NH2-].[Pt+2] [Carboplatin],617,751,749,726,684,672,631,665,608,685,644,677,737,700,752,704,≥ 812,779,797,738
N.N.[Cl][Pt][Cl] [Cisplatin],666,764,731,760,684,650,719,665,646,678,639,657,761,685,774,717,859,812,835,771
Nc1nc(Cl)nc2c1ncn2[C@H]1C[C@H](O)[C@@H](CO)O1 [Cladribine],131,515,512,553,329,359,218,395,194,265,269,419,496,246,497,536,≥ 688,442,436,499
Nc1nc(Cl)nc2c1ncn2[C@@H]1O[C@H](CO)[C@@H](O)[C@@H]1F [Clofarabine],371,571,574,575,481,462,518,470,419,459,353,473,562,356,539,581,≥ 718,604,572,609
C[C@@H](Oc1cc(-c2cnn(C3CCNCC3)c2)cnc1N)c1c(Cl)ccc(F)c1Cl [Crizotinib],524,696,639,674,562,522,591,566,614,616,562,623,700,602,739,738,≥ 767,642,666,731
Nc1ccn([C@@H]2O[C@H](CO)[C@@H](O)[C@@H]2O)c(=O)n1 [Cytarabine HCl],280,410,383,386,296,395,378,363,110,417,224,413,452,154,737,664,≥ 776,668,678,673
Cc1nc(Nc2ncc(C(=O)Nc3c(C)cccc3Cl)s2)cc(N2CCN(CCO)CC2)n1 [Dasatinib],306,761,469,687,519,571,613,662,619,695,579,575,734,590,650,611,568,≤ 344,≤ 344,375
COc1cccc2c1C(=O)c1c(O)c3c(c(O)c1C2=O)C[C@@](O)(C(C)=O)C[C@@H]3O[C@H]1C[C@H](N)[C@H](O)[C@H](C)O1 [Daunorubicin HCl],330,479,440,495,407,437,339,413,399,454,427,395,480,426,572,548,≥ 592,537,494,478
Nc1ncn([C@H]2C[C@H](O)[C@@H](CO)O2)c(=O)n1 [Decitabine],161,582,516,516,235,138,303,278,362,503,461,452,530,436,756,796,813,779,829,774
COc1cc2nccc(Oc3ccc(NC(=O)NC4CC4)c(Cl)c3)c2cc1C(N)=O [E7080],219,727,515,334,531,629,558,629,638,682,621,707,713,675,749,768,763,622,645,716
Cn1cc(C2=C(c3cn(C4CCN(Cc5ccccn5)CC4)c4ccccc34)C(=O)NC2=O)c2ccccc21 [Enzastaurin],635,745,700,734,650,685,690,646,678,706,646,673,703,694,778,810,874,768,861,793
C#Cc1cccc(Nc2ncnc3cc(OCCOC)c(OCCOC)cc23)c1 [Erlotinib HCl],554,696,683,627,660,556,628,670,672,685,610,665,699,642,758,768,779,825,784,748
CCc1cccc2c3c([nH]c12)C(CC)(CC(=O)O)OCC3 (stereo not given) [Etodolac],653,694,678,707,654,672,705,624,648,683,626,685,705,682,758,737,851,796,844,764
COc1cc([C@@H]2c3cc4c(cc3[C@@H](O[C@@H]3O[C@@H]5CO[C@@H](C)O[C@H]5[C@H](O)[C@H]3O)[C@H]3COC(=O)[C@H]23)OCO4)cc(OC)c1O [Etoposide],266,490,470,568,328,467,283,353,229,466,551,374,540,350,718,726,742,708,696,616
CO[C@H]1C[C@@H]2CC[C@@H](C)[C@@](O)(O2)C(=O)C(=O)N2CCCC[C@H]2C(=O)O[C@H]([C@H](C)C[C@@H]2CC[C@@H](OCCO)[C@H](OC)C2)CC(=O)[C@H](C)/C=C(\C)[C@@H](O)[C@@H](OC)C(=O)[C@H](C)C[C@H](C)/C=C/C=C/C=C/1C [Everolimus],288,568,471,501,446,408,392,580,509,553,438,430,502,313,≤ 290,430,338,291,364,473
CSCC[C@H](NC(=O)c1ccc(NC[C@@H](N)CS)cc1-c1ccccc1)C(=O)O [FTI-276],629,753,722,768,641,611,641,601,611,660,601,668,765,658,782,772,861,847,847,799
CC1=C(/C=C/C(C)=C/C=C/C(C)=C/C(=O)Nc2ccc(O)cc2)C(C)(C)CCC1 [Fenretinide],538,691,691,618,618,535,545,536,545,570,565,581,653,569,703,661,736,≥ 785,703,752
